“Also recorded” adds a separate entry of the source. Counter-ions that a name gives are not always drawn. Starred links: 1 amine or outer side, 2 acyl side, 3 side chain; linkers in the order of their positions; H or OH if unused. Residues, ends and D or L forms follow the SMILES beside them. *: point of attachment. Doxorubicin(3'-N) = COc1cccc2c1C(=O)c1c(O)c3c(c(O)c1C2=O)C[C@@](O)(C(=O)CO)C[C@@H]3O[C@H]1C[C@H](N*)[C@H](O)[C@H](C)O1; Suc = O=C(CCC(=O)[*:2])[*:1]
Assays:
[1] = tested on: MDA-MB231 cells; test: Efficacy in MDA-MB231 tumor model in nude mice; type: in vivo
Source text: Test purpose: to investigate the anti-tumor efficacy of S1 and S2 via mouse tumor treatment model.
Test drug: S1 and S2 injections, and doxorubicin hydrochloride injection, diluted to corresponding concentrations by physiological saline when testing.
1. Animal: nude mice of 6-8 weeks old, all female.
1) MDA-MB231 cells were purchased from American type culture collection (ATCC) and identified according the specification provided by ATCC.
2) Production of tumor. […] Mice were randomly grouped after the diameter of the tumor reached about 0.3 cm to 0.4 cm. Then treatment began.
(§1) According to the clinical application of S1 and S2, drugs were intraperitoneally injected. A dose of 30 mg/kg (<1/2 MTD) was used for the S1 treatment group, 30 mg/kg (<1/2 MTD) for the S2 treatment group, and 4 mg/kg (>1/2 MTD) for doxorubicin hydrochloride. The control group was administered with physiological saline. The drugs were administered twice weekly for three weeks.

[2] = tested on: 4T1 cells; test: Efficacy in 4T1 tumor metastasis (lung) model in BALB/C mice; type: in vivo
Source text: Test purpose: to investigate the anti-tumor efficacy of S1 and S2 in a tumor metastasis treatment model from BALB/C mice.
Test drug: S1 and S2 injections, and doxorubicin hydrochloride injection, diluted to corresponding concentrations with physiological saline when testing.
1. Animal: BALB/C mice of 6-8 weeks old, all female.
1) 4T1 cells were purchased from American type culture collection (ATCC) and identified according the specification provided by ATCC. Cells were cultivated in DMEM culture medium containing 10% fetal bovine serum at 37° C. and 5% CO2. The cells were passaged for every three days and cells within the 15th passage were used.
2) Production of tumor metastasis. 10^6 […] were subcutaneously injected to the back of the BALB/C mice. Mice were randomly grouped after the tumor grew to about 1.5 cm. The subcutaneous tumor was removed by surgery and drug treatment began. Mice were killed after anesthesia on day 27. The whole lung was taken out and put into Bouin's solution for staining. The number of the tumor metastasized to lung was counted with anatomical microscope.
as §1, with “3) Course of treatment. According” for “According”, “10 μmol/kg (<1/10” for “30 mg/kg (<1/2”, “3 μmol/kg” for “4 mg/kg”, “daily” for “twice weekly”, “8 days.” for “three weeks.”

[3] = Maximum tolerated dose (MTD) / acute toxicity of a single injection in mice; details: female, BALB/C, mouse, in vivo
Source text: (§2) Test purpose: to investigate the acute toxicity of the subject new drug formulation via MTD assay by intravenous administration to mice.
(§3) Test drug: S1 and S2 injections, diluted to the corresponding concentrations with physiological saline when tested.
(§4) Animal: the first class BALB/C mice, weighing 19-21 g and all mice being female.
(§5) Method and results: 36 female BALB/C mice weighing 19-21 g were randomly divided into 6 groups according to their body weights, with 6 mice in each group. […] Control tests were performed by injecting 0.2 ml physiological saline or doxorubicin hydrochloride. […] Blood samples were taken on the 3, 5 and 14 days for counting the whole blood cells. Animals were anatomized on day 14 to take the heart, liver, kidney, lung, spleen, and pancreas for HE staining.
(§6) The MTD for intravenous administration of a test drug is an important reference index for drug toxicity.

[4] = tested on: BALB/C mice; test: as above
Source text: as §2, §3, §4, §5, §6

[5] = Metabolic half-life in mice blood
[6] = target: serum albumin (Mus musculus, UniProt P07724); details: blood taken 10 minutes after intravenous tail injection
Procedure: Bloods were taken after 10 minutes and centrifuged to obtain serum. The proteins in the serum were precipitated by 70% ethanol.

[7] = target: Cathepsin B (Homo sapiens, UniProt P07858); test: In vitro binding to cathepsin absorbed on a 96-well plate (fluorescence of bound drug); details: FIG. 1
Source text: The R6 group allows the drug to be able to target cathepsin (Cathepsin B) in the tumor microenvironment and inhibit the activity of cathepsin necessary for tumor growth, development and metastasis. […] The R6 group also allows the drug to have an additional function of targeting tumor, thus the drug has two targeted effects.
The test method was described as follows. Cathepsin was absorbed on a 96-well plate and blocked with BSA. Succinyl-AANL-DOX (SEQ ID NO: 2), S1 and a mixture of S1 and E-64 (an inhibitor for specific binding of cathepsin) were added to allow them to bind to the cathepsin on the 96-well plate. The unbound drugs were removed and the fluorescence of the bound drug was detected.

[8] = lung, day 27, i.p. daily for 8 days, S1, S2 10 μmol/kg, doxorubicin hydrochloride 3 μmol/kg
[9] = 10 mg/kg, single injection, 6 female BALB/C mice

serum albumin, sequence (P07724 25-608): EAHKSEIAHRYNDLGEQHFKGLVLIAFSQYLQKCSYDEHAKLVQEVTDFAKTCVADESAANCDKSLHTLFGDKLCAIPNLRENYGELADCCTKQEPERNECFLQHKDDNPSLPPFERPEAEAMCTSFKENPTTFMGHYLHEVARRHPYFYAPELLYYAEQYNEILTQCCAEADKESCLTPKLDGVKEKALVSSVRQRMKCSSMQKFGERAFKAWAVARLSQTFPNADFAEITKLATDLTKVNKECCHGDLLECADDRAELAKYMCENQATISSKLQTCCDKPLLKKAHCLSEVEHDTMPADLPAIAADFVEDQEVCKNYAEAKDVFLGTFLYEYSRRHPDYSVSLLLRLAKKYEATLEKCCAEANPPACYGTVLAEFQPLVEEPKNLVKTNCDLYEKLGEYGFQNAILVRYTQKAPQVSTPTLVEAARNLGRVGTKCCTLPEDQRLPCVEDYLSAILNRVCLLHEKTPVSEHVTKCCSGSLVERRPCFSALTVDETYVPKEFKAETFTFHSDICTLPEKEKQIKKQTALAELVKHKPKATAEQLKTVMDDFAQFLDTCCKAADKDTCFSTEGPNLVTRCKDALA

## COc1cccc2c1C(=O)c1c(O)c3c(c(O)c1C2=O)C[C@@](O)(C(=O)CO)C[C@@H]3O[C@H]1C[C@H](N)[C@H](O)[C@H](C)O1 [doxorubicin hydrochloride, reference compound]
[1]; 20 days, i.p. twice weekly for three weeks, S1, S2 30 mg/kg, doxorubicin hydrochloride 4 mg/kg
  Inhibitory rate of tumor, 20 days: 7.4%
[1]; 20 days, i.p. twice weekly for three weeks, S1, S2 30 mg/kg, doxorubicin hydrochloride 4 mg/kg, nude mice
  Size of tumor (mm^3), 20 days: 358.7 ± 39.7 mm^3
[1]; 38 days, i.p. twice weekly for three weeks, S1, S2 30 mg/kg, doxorubicin hydrochloride 4 mg/kg
  Inhibitory rate of tumor, 38 days: 29.1%
[1]; 38 days, i.p. twice weekly for three weeks, S1, S2 30 mg/kg, doxorubicin hydrochloride 4 mg/kg, nude mice
  Size of tumor (mm^3), 38 days: 881.2 ± 86.5 mm^3
[1]; day 38, same method as Test Example 2
  Tumor-inhibitory rate (day 38): 29.1%
[2]; [8]
  Inhibitory rate on metastasis: 31.4%
  Number of metastasized tumor: 98 ± 18
[2]; same method as Test Example 3
  Metastasis-inhibitory rate: 31.4%
[3]
  MTD at 17 days: 4 to 8 µmol/kg
[4]; [9]
  Mortality rate (%): 100%
  Number of dead animal: 6
[4]; Table 4, toxicity by the method of Test Example 1
  MDA-MB231: 7 mg/kg

## COc1cccc2c1C(=O)c1c(O)c3c(c(O)c1C2=O)C[C@@](O)(C(=O)CO)C[C@@H]3O[C@H]1C[C@H](NC(=O)[C@H](CC(C)C)NC(=O)[C@H](CC(N)=O)NC(=O)[C@H](C)NC(=O)[C@H](C)NC(=O)CCC(=O)O)[C@H](O)[C@H](C)O1 [Succinyl-AANL-DOX, reference compound] (Suc-AANL-{Doxorubicin(3'-N)})
[5]
  Metabolic half-life in the mice blood: 37 h
[6]
  Binding to serum albumin / plasma protein in blood: did not bind to serum albumin in the blood plasma
[7]; cathepsin absorbed on 96-well plate, blocked with BSA
  Binding to cathepsin: did not bind to absorbed cathepsin

## CC(C)C[C@H](NC(=O)[C@H]1O[C@@H]1C(=O)O)C(=O)NCCCCN=C(N)N [Example E-64, E-64, reference compound]
[7]; mixture of S1 and E-64
  Competitive inhibition of the binding of S1 to cathepsin: could competitively inhibit the binding of S1; also recorded: binding can be inhibited by cathepsin inhibitor E-64

## COc1cccc2c1C(=O)c1c(O)c3c(c(O)c1C2=O)C[C@@](O)(C(=O)CO)C[C@@H]3O[C@@H]1C[C@H](NC(=O)[C@H](CC(C)C)NC(=O)[C@H](CC(N)=O)NC(=O)[C@H](C)NC(=O)[C@H](C)NC(=O)OC(C)(C)C)[C@H](O)[C@H](C)O1 [BOC-AANL-DOX]
[5]
  Metabolic half-life in the mice blood: 0.7 h

From patent publication US9982011B2, “Legumain activated doxorubicin derivative as well as preparation method and application thereof” (priority 2012, dated 2018)
